We go through 42 compounds from US8299056B2 (Signal Pharmaceuticals, LLC, priority 2008, dated 2012).

The target of this experiment is T1, Syk (Homo sapiens, UniProt P43405).
T1 construct: purchased Carna Biosciences
Description: Syk HTRF assay. It is filed as biochemical. The conditions noted are these: IC50 activity level, read-out: Activity Level. In outline:
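HTRF kinase assay in HEPES pH 7.6 buffer with MgCl2, DTT and Triton X100; start mix of 87.5 μM ATP and 80 nM biotinylated peptide, 1 h at room temperature. EDTA stop, then Eu-anti-phosphotyrosine/streptavidin-DyLight 647 detection, read as 665/615 nm emission ratio.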
As for `FC(F)(F)c1ccc(Nc2nc3cccc(N[C@@H]4CCCNC4)n3n2)cc1` [Example 468, (R)-N^5-(piperidin-3-yl)-N^2-(4-(trifluoromethyl)phenyl)-[1,2,4]triazolo[1,5-a]pyridin-2,5-diamine], the IC50 lay in the range of 500 to 1000 nM.

`FC(F)(F)c1ccc(Nc2nc3cccc(N[C@H]4CCCNC4)n3n2)cc1` [Example 469, (S)-N^5-(piperidin-3-yl)-N^2-(4-(trifluoromethyl)phenyl)-[1,2,4]triazolo[1,5-a]pyridin-2,5-diamine]: the IC50 was in the range of 0.005 to 250 nM.

On to `O[C@H]1CC[C@@H](Nc2cccc3nc(Nc4ccccc4)nn23)CC1` [Example 471, cis-4-(2-(phenylamino)-[1,2,4]triazolo[1,5-a]pyridin-5-ylamino)cyclohexanol], for which the IC50 is 0.005 to 250 nM.

As for `CN(c1ccccc1)c1cccc2nc(Nc3ccccc3)nn12` [Example 472, N^5-methyl-N^2,N^5-diphenyl-[1,2,4]triazolo[1,5-a]pyridin-2,5-diamine], the IC50 fell in the range of 1000 to 10000 nM.

Regarding `Cc1cc(-c2cccc3nc(Nc4ccccc4)nn23)no1` [Example 473, 5-(5-methylisoxazol-3-yl)-N-phenyl-[1,2,4]triazolo[1,5-a]pyridin-2-amine], the IC50 lay in the range of 500 to 1000 nM.

Turning to `c1ccc(Nc2nc3cccc(N[C@@H]4CCNC4)n3n2)cc1` [Example 474, (R)-N^2-phenyl-N^5-(pyrrolidin-3-yl)-[1,2,4]triazolo[1,5-a]pyridin-2,5-diamine], the IC50 fell in the range of 500 to 1000 nM.

As to `c1ccc(Nc2nc3cccc(N[C@H]4CCNC4)n3n2)cc1` [Example 475, (S)-N^2-phenyl-N^5-(pyrrolidin-3-yl)-[1,2,4]triazolo[1,5-a]pyridin-2,5-diamine], the IC50 fell in the range of 250 to 500 nM.

For the compound `CN(C)c1cccc2nc(Nc3ccccc3)nn12` [Example 477, N^5,N^5-dimethyl-N^2-phenyl-[1,2,4]triazolo[1,5-a]pyridin-2,5-diamine], the IC50 lay in the range of 1000 to 10000 nM.

On to `c1ccc(Nc2nc3cccc(CC4CCCNC4)n3n2)cc1` (stereo not drawn) [Example 478, N-phenyl-5-(piperidin-3-ylmethyl)-[1,2,4]triazolo[1,5-a]pyridin-2-amine], for which the IC50 was in the range of 250 to 500 nM.

`C[C@@H](CO)Cc1cccc2nc(Nc3ccccc3)nn12` [Example 479, (R)-2-methyl-3-(2-(phenylamino)-[1,2,4]triazolo[1,5-a]pyridin-5-yl)propan-1-ol]: the IC50 was 500 to 1000 nM.

As to `CNc1nc2cc(-c3cccc4nc(Nc5ccccc5)nn34)ccc2[nH]1` [Example 481, 5-(2-(methylamino)-1H-benzo[d]imidazol-5-yl)-N-phenyl-[1,2,4]triazolo[1,5-a]pyridin-2-amine], the IC50 lay within 0.005 to 250 nM.

Consider `c1ccc(Nc2nc3cccc(CC4CCNCC4)n3n2)cc1` [Example 482, N-phenyl-5-(piperidin-4-ylmethyl)-[1,2,4]triazolo[1,5-a]pyridin-2-amine], for which the IC50 fell in the range of 0.005 to 250 nM.

`NC(=O)c1ccc(Nc2nc3cccc(N[C@H]4CCCNC4)n3n2)cc1` [Example 483, (S)-4-(5-(piperidin-3-ylamino)-[1,2,4]triazolo[1,5-a]pyridin-2-ylamino)benzamide]: the IC50 lay in the range of 0.005 to 250 nM.

Regarding `c1ccc(Nc2nc3cccc(Nc4ccccn4)n3n2)cc1` [Example 484, N^2-phenyl-N^5-(pyridin-2-yl)-[1,2,4]triazolo[1,5-a]pyridin-2,5-diamine], the IC50 was 500 to 1000 nM.

For the compound `c1ccc(Nc2nc3cccc(-c4ccc5cn[nH]c5c4)n3n2)cc1` [Example 485, 5-(1H-indazol-6-yl)-N-phenyl-[1,2,4]triazolo[1,5-a]pyridin-2-amine], the IC50 was 0.005 to 250 nM.

For the compound `CN(C)Cc1nc2cc(-c3cccc4nc(Nc5ccccc5)nn34)ccc2[nH]1` [Example 486, 5-(2-((dimethylamino)methyl)-1H-benzo[d]imidazol-5-yl)-N-phenyl-[1,2,4]triazolo[1,5-a]pyridin-2-amine], the IC50 was in the range of 0.005 to 250 nM.

For `CNCc1nc2cc(-c3cccc4nc(Nc5ccccc5)nn34)ccc2[nH]1` [Example 487, 5-(2-((methylamino)methyl)-1H-benzo[d]imidazol-5-yl)-N-phenyl-[1,2,4]triazolo[1,5-a]pyridin-2-amine], the IC50 was in the range of 0.005 to 250 nM.

As to `c1ccc(Nc2nc3cccc(-c4ccccn4)n3n2)cc1` [Example 488, N-phenyl-5-(pyridin-2-yl)-[1,2,4]triazolo[1,5-a]pyridin-2-amine], the IC50 was in the range of 1000 to 10000 nM.

Take `Nc1nccc2ccc(-c3cccc4nc(Nc5ccccc5)nn34)cc12` [Example 489, 7-(2-(phenylamino)-[1,2,4]triazolo[1,5-a]pyridin-5-yl)isoquinolin-1-amine]: the IC50 was in the range of 500 to 1000 nM.

With `NCCn1cnc2cc(-c3cccc4nc(Nc5ccccc5)nn34)ccc21` [Example 490, 5-(1-(2-aminoethyl)-1H-benzo[d]imidazol-5-yl)-N-phenyl-[1,2,4]triazolo[1,5-a]pyridin-2-amine], the IC50 lay within 1000 to 10000 nM.

As for `OC(c1cccc2nc(Nc3ccccc3)nn12)C1CCN(Cc2ccccc2)CC1` (stereo not drawn) [Example 491, (1-benzylpiperidin-4-yl)(2-(phenylamino)-[1,2,4]triazolo[1,5-a]pyridin-5-yl)methanol], the IC50 lay in the range of 1000 to 10000 nM.

Consider `NC(=O)c1ccc(Nc2nc3cccc(N[C@H]4CC[C@@H](N)CC4)n3n2)cc1` [Example 493, cis-4-(5-(4-aminocyclohexylamino)-[1,2,4]triazolo[1,5-a]pyridin-2-ylamino)benzamide], for which the IC50 lay in the range of 0.005 to 250 nM.

In the case of `NCCN1Cc2cc(-c3cccc4nc(Nc5ccccc5)nn34)ccc2C1=O` [Example 494, 2-(2-aminoethyl)-5-(2-(phenylamino)-[1,2,4]triazolo[1,5-a]pyridin-5-yl)isoindolin-1-one], the IC50 lay within 500 to 1000 nM.

For the compound `NCCN1Cc2ccc(-c3cccc4nc(Nc5ccccc5)nn34)cc2C1=O` [Example 495, 2-(2-aminoethyl)-6-(2-(phenylamino)-[1,2,4]triazolo[1,5-a]pyridin-5-yl)isoindolin-1-one], the IC50 was 1000 to 10000 nM.

For `O=C1NCc2cc(-c3cccc4nc(Nc5ccccc5)nn34)ccc21` [Example 496, 5-(2-(phenylamino)-[1,2,4]triazolo[1,5-a]pyridin-5-yl)isoindolin-1-one], the IC50 fell in the range of 250 to 500 nM.

Regarding `NCCCc1cccc2nc(Nc3ccccc3)nn12` [Example 498, 5-(3-aminopropyl)-N-phenyl-[1,2,4]triazolo[1,5-a]pyridin-2-amine], the IC50 fell in the range of 1000 to 10000 nM.

With `O=C1NCc2c1cccc2-c1cccc2nc(Nc3ccccc3)nn12` [Example 499, 4-(2-(phenylamino)-[1,2,4]triazolo[1,5-a]pyridin-5-yl)-isoindolin-1-one], the IC50 fell in the range of 1000 to 10000 nM.

As for `O=C1NCc2ccc(-c3cccc4nc(Nc5ccccc5)nn34)cc21` [Example 500, 6-(2-(phenylamino)-[1,2,4]triazolo[1,5-a]pyridin-5-yl)-isoindolin-1-one], the IC50 lay within 500 to 1000 nM.

Turning to `OC(c1cccnc1)c1cccc2nc(Nc3ccccc3)nn12` (stereo not drawn) [Example 501, (2-(phenylamino)-[1,2,4]triazolo[1,5-a]pyridin-5-yl)(pyridin-3-yl)methanol], the IC50 is 250 to 500 nM.

For `OC(c1cccc2nc(Nc3ccccc3)nn12)C1CCNCC1` (stereo not drawn) [Example 502, (2-(phenylamino)-[1,2,4]triazolo[1,5-a]pyridin-5-yl)(piperidin-4-yl)methanol], the IC50 lay within 250 to 500 nM.

As for `c1ccc(Nc2nc3cccc(Oc4ccccc4)n3n2)cc1` [Example 503, 5-phenoxy-N-phenyl-[1,2,4]triazolo[1,5-a]pyridin-2-amine], the IC50 lay within 1000 to 10000 nM.

As for `O=C(N[C@H]1CCCNC1)c1cccc2nc(Nc3ccccc3)nn12` [Example 504, (S)-2-(phenylamino)-N-(piperidin-3-yl)-[1,2,4]triazolo[1,5-a]pyridine-5-carboxamide], the IC50 lay within 1000 to 10000 nM.

Turning to `NCCCCc1cccc2nc(Nc3ccccc3)nn12` [Example 505, 5-(4-aminobutyl)-N-phenyl-[1,2,4]triazolo[1,5-a]pyridin-2-amine], the IC50 fell in the range of 500 to 1000 nM.

As for `c1ccc(Cc2cccc3nc(Nc4ccccc4)nn23)cc1` [Example 506, 5-benzyl-N-phenyl-[1,2,4]triazolo[1,5-a]pyridin-2-amine], the IC50 was 1000 to 10000 nM.

Consider `c1ccc(Nc2nc3cccc(N[C@H]4CCCNC4)n3n2)cc1` [Example 507, (S)-N^2-phenyl-N^5-(piperidin-3-yl)-[1,2,4]triazolo[1,5-a]pyridin-2,5-diamine], for which the IC50 lay within 0.005 to 250 nM.

In the case of `N[C@H]1CC[C@@H](Nc2cccc3nc(Nc4ccccc4)nn23)CC1` [Example 508, cis-N^5-(4-aminocyclohexyl)-N^2-phenyl-[1,2,4]triazolo[1,5-a]pyridine-2,5-diamine], the IC50 lay in the range of 250 to 500 nM.

Regarding `O=C(c1ccccc1)c1cccc2nc(Nc3ccccc3)nn12` [Example 509, phenyl(2-(phenylamino)-[1,2,4]triazolo[1,5-a]pyridin-5-yl)methanone], the IC50 is 1000 to 10000 nM.

`c1ccc(Nc2nc3cccc(OC4CCCCC4)n3n2)cc1` [Example 510]: the IC50 is 1000 to 10000 nM.

For `Nc1n[nH]c2ccc(-c3cccc4nc(Nc5ccccc5)nn34)cc12` [Example 511, 5-(3-amino-1H-indazol-5-yl)-N-phenyl-[1,2,4]triazolo[1,5-a]pyridin-2-amine], the IC50 was in the range of 250 to 500 nM.

With `c1ccc(Nc2nc3cccc(C4CCNCC4)n3n2)cc1` [Example 512, N-phenyl-5-(piperidin-4-yl)-[1,2,4]triazolo[1,5-a]pyridin-2-amine], the IC50 was in the range of 1000 to 10000 nM.

In the case of `C1=C(c2cccc3nc(Nc4ccccc4)nn23)CCNC1` [Example 513, N-phenyl-5-(1,2,3,6-tetrahydropyridin-4-yl)-[1,2,4]triazolo[1,5-a]pyridin-2-amine], the IC50 was in the range of 1000 to 10000 nM.

Regarding `c1ccc(Nc2nc3cccc(-c4ccc5nc[nH]c5c4)n3n2)cc1` [Example 514, 5-(1H-benzo[d]imidazol-6-yl)-N-phenyl-[1,2,4]triazolo[1,5-a]pyridin-2-amine], the IC50 is 0.005 to 250 nM.
